Molecules are shown by their SMILES.

Series [1] is described as follows: Cytotoxicity against human Caco2 cells after 24 hrs by MTT assay. Format: functional, cell-based, Caco-2. Background: Tetrazolium assays rely on reduction of a dye to a coloured formazan, in cell work by metabolically active cells.
The nature of the next series: cells. To be noted: Homo sapiens, 3215LS, 24 h. Format: ADME, cell-based.
A short description of series [2]: Aqueous solubility of compound at room temperature. The format is physicochemical. To be noted: water.

Description for cells: Cytotoxicity against human 3215LS cells after 24 hrs by MTT assay

The IC50 is the point on the concentration scale where inhibition reaches its midpoint. Low values mean greater potency in that assay, high ones weaker potency in that assay. Turning to `CCn1cc[n+](C)c1` [listing 1 of 2 here], the IC50 in series [1] (caco-2) was 32.1 mM. With `O=C(O)c1ccccc1O` [SALICYLIC ACID], the IC50 in the series “cells” came to 1.14 mM; in series [1] (Homo sapiens, Caco-2, 24 h), 5 mM. In series [1] (caco-2), `CCCCn1cc[n+](C)c1` [listing 1 of 3 here] registered an IC50 of 4.34 mM. In the case of `COC(=O)[C@H](C)N`, the IC50 in “cells” is 2.63 mM; in series [1] (Homo sapiens, Caco-2, 24 h) it was 6.24 mM. On to `C[n+]1ccn(CCOC(=O)c2ccccc2O)c1`, for which the IC50 in series [1] (Homo sapiens, Caco-2, 24 h) came out at 4.77 mM. This lies in the millimolar range. `CCn1cc[n+](C)c1` [listing 2 of 2 here]: in series [1] (caco-2), the IC50 came out at 5.97 mM. This counts as millimolar. Consider `CCCCCCn1cc[n+](C)c1` [listing 1 of 2 here], for which the midpoint of inhibition in series [1] (caco-2), the IC50, lay at 1.96 mM. Compared with the last compound, the IC50 is about 3-fold lower. The compound `CCCCn1cc[n+](C)c1` [listing 2 of 3 here] gave an IC50 in series [1] (caco-2) of 11.2 mM.

Consider `C[n+]1ccn(CCCOC(=O)c2ccccc2O)c1`, for which the IC50 in “cells” was 3.19 mM; in series [1] (Homo sapiens, Caco-2, 24 h), 2.55 mM. In series [1] (caco-2), `CCCCn1cc[n+](C)c1` [listing 3 of 3 here] yielded an IC50 of 18.8 mM. In series [1] (caco-2), `CCCCCCn1cc[n+](C)c1` [listing 2 of 2 here] registered an IC50 of 6.21 mM. By solubility is commonly meant the concentration that dissolves in the medium under given conditions. Read a high solubility as a readily soluble substance. Turning to `C[n+]1ccn(CCOC(=O)c2ccccc2O)c1.[Cl-]`, the IC50 in series [1] (caco-2) stood at 3.82 mM. The compound further registered a solubility in series [2] of 267 mg/mL.

These data come from ChEMBL document CHEMBL3751838, “Cytotoxic Activity of Salicylic Acid-Containing Drug Models with Ionic and Covalent Binding” (ACS Med Chem Lett, 2015).
